Data taken from paper PMC12295927, “Design, Synthesis, and Testing of 1,2,3-Triazolo-Quinobenzothiazine Hybrids for Cytotoxic and Immunomodulatory Activity” (International Journal of Molecular Sciences, 2025).

What was measured:
IL6 gene [1] = assay: RT-qPCR IL6 gene expression in BEAS-2B; type: cell-based, Human; conditions: 24 h; for fold induction at 100 µM: Homo sapiens, reference gene RPL41, vs untreated control, read-out: Relative level of expression, IL6 gene
Method: (§1) Real-time polymerase chain reaction was performed for the reference gene RPL41 (ribosomal protein L41) and the tested genes: BCL2, AIFM2, MDM2, IL6 and IL8. […] The BEAS-2B line was selected for the experiment. The expression level of selected genes was measured after 24 h of incubation with the tested substances MJ1–MJ20 at a concentration of 100 μM (Table 3).
(§2) The RT-qPCR experiment was performed for the BEAS-2B cell line. In this experiment, the IL6 and IL8 genes were studied and RPL41 was used as a reference gene (Figure 17 and Figure 18).
(§3) Gene expression studies used quantitative RT-qPCR to assess the effect of the tested quinobenzothiazines (MJ1–MJ20) on the expression of apoptosis-related genes (BCL2, AIFM2, MDM2) and pro-inflammatory cytokines (IL6, IL8) (Table 4).
(§4) BEAS-2B and HCT116 cells were seeded in 6-well plates at 2 × 10^5 cells per well and cultured in RPMI-1640 (BEAS-2B) or DMEM (HCT116) medium supplemented with 10% FBS and 1% penicillin/streptomycin at 37 °C, 5% CO2 and 95% humidity. After 24 h of incubation, the tested compounds were added at a concentration of 100 µM. After 24 h, the medium was removed from the cells, washed with PBS solution, 0.5 mL of trypsin was added per well and after 5 min it was neutralized with medium. The obtained cell suspension was centrifuged for 3 min at 2000 rpm, the supernatant was removed, and the obtained pellet was suspended in 400 µL of phenozol. Samples were frozen at −20 °C and stored until further experiment and RNA isolation.
(§5) Total RNA was isolated from cells using the A&A Biotechnology Total RNA Mini kit according to the manufacturer’s protocol. RNA quality and quantity were assessed using a NanoDrop 2000 spectrophotometer at 260/280 nm. Reverse transcription was performed using the protocol (EURx NG dART RT Kit) to obtain cDNA. After incubation, samples were placed in a freezer (−20 °C) and stored until further analysis.
(§6) The experiment was performed according to the protocol (Brilliant III Ultra Fast SYBR® Green QPCR Master Mix, Quick Reference Guide for the Bio-Rad CFX96 Real-Time PCR Detection System). RT-qPCR reaction was performed using specific primers for target genes (BCL2, AIFM2, MDM2, IL6, IL8). Gene expression was normalized to the expression of the reference gene RPL41. Reaction profiles and results were performed using Bio-Rad CFX Maestro 1.1 software from Bio-Rad. Analysis and calculations of the results obtained during RT-qPCR were performed using Microsoft Excel.
(§7) The results were analyzed using the R = 2^−ΔΔCt method, which allows for determining the relative level of gene expression (R) compared to the control. Each experiment was performed in three technical and biological replicates. RT-qPCR allowed for precise assessment of changes in the expression of genes related to the processes of apoptosis and inflammatory response under the influence of quinobenzothiazines, which allowed for identifying their potential mechanisms of action at the molecular level.

IL8 gene [2] = assay: RT-qPCR IL8 gene expression in BEAS-2B; type: cell-based; conditions: Homo sapiens, 24 h, reference gene RPL41, vs untreated control, read-out: Relative level of expression, IL8 gene
Method: as §1, §2, §3, §4, §5, §6, §7

BCL2 gene = assay: RT-qPCR BCL2 gene expression in BEAS-2B; type: cell-based, Human; conditions: 24 h; for fold induction at 100 µM: Homo sapiens, reference gene RPL41, vs untreated control, read-out: Relative level of expression, BCL2 gene
Method: as §1
The RT-qPCR experiment was performed for the BEAS-2B cell line. In this experiment, the BCL2 gene was studied, and RPL41 was used as the reference gene (Figure 14).
as §3, §4, §5, §6, §7

AIFM2 gene [3] = assay: RT-qPCR AIFM2 gene expression in BEAS-2B; type: cell-based, Human; conditions: 24 h; for AIFM2 expression increase: 100 μM, compared to control; for fold induction at 100 µM: Homo sapiens, reference gene RPL41, vs untreated control, read-out: Relative level of expression, AIFM2 gene
Method: as §1
The RT-qPCR experiment was performed for the BEAS-2B cell line. In this experiment, the AIFM2 gene was studied and RPL41 was used as reference gene (Figure 16).
as §3, §4, §5, §6, §7

BEAS-2B = assay: Alamar Blue cytotoxicity test, BEAS-2B; type: cell-based, Human; conditions: Homo sapiens, 24 h, 24 h incubation, read-out: IC50 values for BEAS-2B line
Method: The cytotoxicity of the tested chemical compounds MJ1–MJ20 was tested using the Alamar Blue test. The experiment was conducted on cell lines BEAS-2B (Figure 7), HCT116 (Figure 8), U2OS (Figure 9), MCF7 (Figure 10), SH-SY5Y (Figure 11), NHDF (Figure 12), and A549 (Figure 13). Cells were seeded in 96-well plates and incubated with the tested compounds for 24 h. The test result is the IC50 parameter, which is a measure of cytotoxic activity expressed by the concentration of the substance that causes the death of half of the analyzed cells compared to the control.
In cytotoxicity studies, the Alamar Blue test was used, which is based on the ability of living cells to reduce the non-fluorescent dye resazurin to fluorescent resorufin, which reflects the metabolic activity of cells. BEAS-2B, NHDF, HCT116, MCF7, A549, SH-SY5Y and U2OS cell lines were cultured under standard conditions, in DMEM medium supplemented with 10% FBS and 1% penicillin/streptomycin, at 37 °C, 5% CO2 and 95% humidity. Cells were seeded in 96-well plates at 1 × 10^4 cells per well and incubated for 24 h. Then, the tested compounds (MJ1–MJ20) were added at different concentrations (from 6.25 µM to 100 µM). The control contained cells untreated with the tested compounds. After 24 h of incubation, 10 µL of Alamar Blue solution was added to each well and incubated for another 2–4 h under the same conditions. The signal was measured spectrophotometrically at wavelengths of 570 nm (for resorufin) and 600 nm (for resazurin) or optionally fluorimetrically, using an excitation maximum of 570 nm and an emission maximum of 585 nm. The results were presented as percentage of cell survival relative to the control, calculating the ratio of absorbance or fluorescence of the sample to the control value. The Alamar Blue assay, due to its sensitivity and non-toxicity, allows for an accurate assessment of metabolic activity and cell survival in response to the tested quinobenzothiazines.

MDM2 gene = assay: RT-qPCR MDM2 gene expression in HCT116; type: cell-based, Human; conditions: HCT116, 100 μM, 24 h, vs untreated control
Method: (§8) In each of the four compound groups: MJ1–MJ5, MJ6–MJ10, MJ11–MJ15, and MJ16–MJ20, one compound was selected based on the best IC50 value and a distinctive gene expression profile (BCL2, MDM2, AIFM2, IL6, IL8).
as §3
as §4, with “The obtained cell suspension was centrifuged for 3 min at 2000 rpm, the supernatant was removed, and the obtained pellet was suspended in 400 µL of phenozol. Samples were frozen at −20 °C and stored until further experiment and RNA isolation.” left out
(§9) Total RNA was isolated from cells using the A&A Biotechnology Total RNA Mini kit according to the manufacturer’s protocol. RNA quality and quantity were assessed using a NanoDrop 2000 spectrophotometer at 260/280 nm. […]
(§10) The results were analyzed using the R = 2^−ΔΔCt method, which allows for determining the relative level of gene expression (R) compared to the control. […]

IL6 gene [4] = assay: RT-qPCR IL6 gene expression in HCT116; type: cell-based, Human; conditions: HCT116, 100 μM, 24 h, vs untreated control
Method: as §8, §3
as §4, with “The obtained cell suspension was centrifuged for 3 min at 2000 rpm, the supernatant was removed, and the obtained pellet was suspended in 400 µL of phenozol. Samples were frozen at −20 °C and stored until further experiment and RNA isolation.” left out
as §9, §10

AIFM2 gene [5] = assay: RT-qPCR AIFM2 gene expression in HCT116; type: cell-based, Human; conditions: HCT116, 100 μM, 24 h, vs untreated control
Method: as §8, §3
as §4, with “The obtained cell suspension was centrifuged for 3 min at 2000 rpm, the supernatant was removed, and the obtained pellet was suspended in 400 µL of phenozol. Samples were frozen at −20 °C and stored until further experiment and RNA isolation.” left out
as §9, §10

IL8 gene [6] = assay: RT-qPCR IL8 gene expression in HCT116; type: cell-based, Human; conditions: HCT116, 100 μM, 24 h, vs untreated control
Method: as §8, §3
as §4, with “The obtained cell suspension was centrifuged for 3 min at 2000 rpm, the supernatant was removed, and the obtained pellet was suspended in 400 µL of phenozol. Samples were frozen at −20 °C and stored until further experiment and RNA isolation.” left out
as §9, §10

Fc1ccc(Cn2cc(CN3c4ccccc4Sc4cc5ccccc5nc43)nn2)cc1 [MJ2, 6-((1-(4-Fluorobenzyl)-1H-1,2,3-triazol-4-yl)methyl)-quino[3,2-b]benzo[1,4]thiazine]
fold induction at 100 µM (IL6 gene [1]): 1.7
fold induction at 100 µM (IL8 gene [2]): 0.4
fold induction at 100 µM (BCL2 gene): 6.5
AIFM2 expression increase (AIFM2 gene [3]): 11.4 fold
fold induction at 100 µM (AIFM2 gene [3]): 11.4
IC50 (BEAS-2B): 76.2 µM

Clc1ccc2c(c1)Sc1cc3ccccc3nc1N2Cc1cn(CSc2ccccc2)nn1 [MJ15, 9-Chloro-6-((1-((phenylthio)methyl)-1H-1,2,3-triazol-4-yl)methyl)-quino[3,2-b]benzo[1,4]thiazine]
fold induction at 100 µM (IL6 gene [1]): 13
Relative level of expression, MDM2 gene (MDM2 gene): 3.73
Relative level of expression, IL6 gene (IL6 gene [4]): 5.56
fold induction at 100 µM (IL8 gene [2]): 5
fold induction at 100 µM (BCL2 gene): 60.3
Relative level of expression, AIFM2 gene (AIFM2 gene [5]): 4.94
fold induction at 100 µM (AIFM2 gene [3]): 2.6
IC50 (BEAS-2B): 87.2 µM

CSc1ccc2c(c1)Sc1cc3ccccc3nc1N2Cc1cn(Cc2ccc(C#N)cc2)nn1 [MJ19, 4-((4-((9-Methylthioquino[3,2-b]benzo[1,4]thiazin-6-yl)methyl)-1H-1,2,3-triazol-1-yl)methyl)benzonitrile]
IL6 expression increase (IL6 gene [1]; 100 μM, compared to control): 57.2 fold
fold induction at 100 µM (IL6 gene [1]): 57.2
fold induction at 100 µM (IL8 gene [2]): 12.8
BCL2 expression increase (BCL2 gene; 100 μM, compared to control): 208 fold
fold induction at 100 µM (BCL2 gene): 208
AIFM2 expression increase (AIFM2 gene [3]): 14.9 fold
fold induction at 100 µM (AIFM2 gene [3]): 14.9
IC50 (BEAS-2B): 72.7 µM

Fc1ccc2c(c1)Sc1cc3ccccc3nc1N2Cc1cn(Cc2ccc(Cl)cc2)nn1 [MJ8, 9-Fluoro-6-[(1-(4-chlorobenzyl)-1H-1,2,3-triazol-4-yl)methyl]-quino[3,2-b]benzo-[1,4]thiazine]
fold induction at 100 µM (IL6 gene [1]): 9.9
Relative level of expression, IL6 gene (IL6 gene [4]): 6.55
fold induction at 100 µM (IL8 gene [2]): 4
fold induction at 100 µM (BCL2 gene): 10.1
fold induction at 100 µM (AIFM2 gene [3]): 4.2
IC50 (BEAS-2B): 71.9 µM
Relative level of expression, IL8 gene (IL8 gene [6]): 6.95
